Measurements reported in patent US20190119251A1, “AMIDE-SUBSTITUTED ARYLTRIAZOLE DERIVATIVES AND USES THEREOF” (BAYER PHARMA AKTIENGESELLSCHAFT, priority 2016, published 2019).

Tests used:
human V2 receptor = biological target: T1, human V2 receptor (Homo sapiens, UniProt P30518); test: Cellular in vitro assay for determining vasopressin receptor activity (V2 cell line, CRE-luciferase); assay type: cell-based; settings: CHO cell line transfected with the human V2 receptor; agonist [Arg8]-vasopressin at EC50 concentration; 3 hours incubation; read-out: IC50 hV2
T1 construct: expressed in transfected cells; host or cells: CHO K1 (Chinese hamster ovary) expressing firefly luciferase under a CRE-responsive promoter
Protocol: (§1) B-1. Cellular In Vitro Assay for Determining Vasopressin Receptor Activity
(§2) The identification of agonists and antagonists of the V 1 a and V2 vasopressin receptors from humans, rats and dogs as well as the quantification of the activity of the compounds of the invention is carried out using recombinant cell lines. These cell lines originally derive from a hamster's ovary epithelial cell (Chinese Hamster Ovary, CHO K1, ATCC: American Type Culture Collection, Manassas, Va. 20108, USA). The test cell lines constitutively express the human, rat or dog
(§3) V1 a or V2 receptors. In case of the Gag-coupled V 1 a receptors, cells are also stably transfected with a modified form of the calcium-sensitive photoproteins aequorin (human and rat V1a) or obelin (dog V 1 a), which, after reconstitution with the cofactor coelenterazine, emit light when there are increases in free calcium concentrations [Rizzuto R, Simpson A W, Brini M, Pozzan T, Nature 358, 325-327 (1992); Illarionov B A, Bondar V S, Illarionova V A, Vysotski E S, Gene 153 (2), 273-274 (1995)]. The resulting vasopressin receptor cells react to stimulation of the recombinantly expressed V 1 a receptors by intracellular release of calcium ions, which can be quantified by the resulting photoprotein luminescence. The Gs-coupled V2 receptors are stably transfected into cell lines expressing the gene for firefly luciferase under control of a CRE-responsible promoter. Activation of V2 receptors induces the activation of the CRE-responsive promoter via cAMP increase, thereby inducing the expression of firefly luciferase. The light emitted by photoproteins of V1a cell lines as well as the light emitted by firefly luciferase of V2 cell lines corresponds to the activation or inhibition of the respective vasopressin receptor. The bioluminescence of the cell lines is detected using a suitable luminometer [Milligan G, Marshall F, Rees S, Trends in Pharmacological Sciences 17, 235-237 (1996)].
Vasopressin V2 Receptor Cell Lines:
On the day before the assay, the cells are plated out in culture medium (DMEM/F12, 2% FCS, 2 mM glutamine, 10 mM HEPES) in 384-well microtiter plates and kept in a cell incubator (96% humidity, 5% v/v CO2, 37° C.). On the day of the assay, test compounds in various concentrations and the agonist [Arg^8]-vasopressin at EC50 concentration are added together to the wells, and plates are incubated for 3 hours in a cell incubator. Upon addition of the cell lysis reagent Triton™ and the substrate luciferin, luminescence of firefly luciferase is measured in a luminometer.
(§4) Table 1A below lists individual IC50 values for the compounds of the invention (including racemic mixtures as well as separated enantiomers) that were obtained from cell lines transfected with the human V1a or V2 receptor: […]

human V1a receptor = biological target: T2, human V1a receptor (Homo sapiens, UniProt P37288); test: Cellular in vitro assay for determining vasopressin receptor activity (V1a cell line, aequorin luminescence); assay type: cell-based; settings: for IC50: CHO cell line transfected with the human V1a receptor, agonist [Arg8]-vasopressin at EC50 concentration, read-out: IC50 hV1a; for ratio IC50 hV2/hV1a: ratio of cellular IC50 values, human V2 over human V1a
T2 construct: expressed in transfected cells; host or cells: CHO K1 (Chinese hamster ovary), also stably transfected with modified aequorin
Protocol: as §1, §2, §3
Vasopressin V1a Receptor Cell Lines:
On the day before the assay, the cells are plated out in culture medium (DMEM/F12, 2% FCS, 2 mM glutamine, 10 mM HEPES, 5 μg/ml coelenterazine) in 384-well microtiter plates and kept in a cell incubator (96% humidity, 5% v/v CO2, 37° C.). On the day of the assay, test compounds in various concentrations are placed for 10 minutes in the wells of the microtiter plate before the agonist [Arg^8]-vasopressin at EC50 concentration is added. The resulting light signal is measured immediately in a luminometer.
as §4

T1 sequence (P30518 whole entry): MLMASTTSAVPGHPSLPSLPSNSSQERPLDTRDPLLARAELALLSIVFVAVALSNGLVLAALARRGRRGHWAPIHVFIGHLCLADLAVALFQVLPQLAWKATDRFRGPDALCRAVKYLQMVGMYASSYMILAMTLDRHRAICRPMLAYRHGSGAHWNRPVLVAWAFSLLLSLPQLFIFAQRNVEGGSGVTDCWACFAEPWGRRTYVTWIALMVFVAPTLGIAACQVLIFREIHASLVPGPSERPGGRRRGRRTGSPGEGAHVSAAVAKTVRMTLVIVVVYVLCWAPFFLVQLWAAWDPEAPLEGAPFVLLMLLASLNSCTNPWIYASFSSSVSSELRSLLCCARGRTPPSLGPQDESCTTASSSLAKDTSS
T2 sequence (P37288 whole entry): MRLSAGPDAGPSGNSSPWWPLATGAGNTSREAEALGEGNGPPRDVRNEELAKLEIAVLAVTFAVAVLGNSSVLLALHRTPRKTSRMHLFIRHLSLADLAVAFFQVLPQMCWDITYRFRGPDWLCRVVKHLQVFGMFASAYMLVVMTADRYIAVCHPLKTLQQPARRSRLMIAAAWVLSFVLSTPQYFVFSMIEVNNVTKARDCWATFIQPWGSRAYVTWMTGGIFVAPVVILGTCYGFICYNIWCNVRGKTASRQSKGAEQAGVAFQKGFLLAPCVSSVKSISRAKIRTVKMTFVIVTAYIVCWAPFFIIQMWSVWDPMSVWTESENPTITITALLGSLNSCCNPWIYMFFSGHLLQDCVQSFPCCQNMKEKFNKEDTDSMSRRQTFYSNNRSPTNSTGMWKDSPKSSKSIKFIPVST

| IC50 (human V2 receptor) [nM] | IC50 (human V1a receptor) [nM] | ratio IC50 hV2/hV1a (human V1a receptor) | SMILES |
| --- | --- | --- | --- |
| 5.25 | 0.75 | 7.0 | NC(=O)c1nc(Cn2nc(-c3ccc(Cl)cc3)n(C[C@H](O)C(F)(F)F)c2=O)nn1-c1c(F)cccc1Cl [Example 21, 1-(2-Chloro-6-fluorophenyl)-3-({3-(4-chlorophenyl)-5-oxo-4-[(2S)-3,3,3-trifluoro-2-hydroxypropyl]-4,5-dihydro-1H-1,2,4-triazol-1-yl}methyl)-1H-1,2,4-triazole-5-carboxamide] |
| 150 | 115 | 1.3 | NC(=O)c1nc(Cn2nc(-c3ccc(Cl)cc3)n(C[C@H](O)C(F)(F)F)c2=O)nn1-c1ccccn1 [Example 11, 3-({3-(4-Chlorophenyl)-5-oxo-4-[(2S)-3,3,3-trifluoro-2-hydroxypropyl]-4,5-dihydro-1H-1,2,4-triazol-1-yl}methyl)-1-(pyridin-2-yl)-1H-1,2,4-triazole-5-carboxamide] |
| 330 | 54 | 6.1 | COC(=O)c1cccnc1-n1nc(Cn2nc(-c3ccc(Cl)cc3)n(C[C@H](O)C(F)(F)F)c2=O)nc1C(N)=O [Example 7, Methyl 2-[5-carbamoyl-3-({3-(4-chlorophenyl)-5-oxo-4-[(2S)-3,3,3-trifluoro-2-hydroxypropyl]-4,5-dihydro-1H-1,2,4-triazol-1-yl}methyl)-1H-1,2,4-triazol-1-yl]pyridine-3-carboxylate] |
| 2.53 | 2.45 | 1.0 | Cc1cccc(C)c1-n1nc(Cn2nc(-c3ccc(Cl)cc3)n(C[C@H](O)C(F)(F)F)c2=O)nc1C(N)=O [Example 23, 3-({3-(4-Chlorophenyl)-5-oxo-4-[(2S)-3,3,3-trifluoro-2-hydroxypropyl]-4,5-dihydro-1H-1,2,4-triazol-1-yl}methyl)-1-(2,6-dimethylphenyl)-1H-1,2,4-triazole-5-carboxamide] |
| 46 | 17.5 | 2.6 | NC(=O)c1nc(Cn2nc(-c3ccc(Cl)cc3)n(C[C@H](O)C(F)(F)F)c2=O)nn1-c1ncccc1F [Example 5, 3-({3-(4-Chlorophenyl)-5-oxo-4-[(2S)-3,3,3-trifluoro-2-hydroxypropyl]-4,5-dihydro-1H-1,2,4-triazol-1-yl}methyl)-1-(3-fluoropyridin-2-yl)-1H-1,2,4-triazole-5-carboxamide] |
| 638 | 152 | 4.2 | NC(=O)c1ccncc1-n1nc(Cn2nc(-c3ccc(Cl)cc3)n(C[C@H](O)C(F)(F)F)c2=O)nc1C(N)=O [Example 14, 3-[5-Carbamoyl-3-({3-(4-chlorophenyl)-5-oxo-4-[(2S)-3,3,3-trifluoro-2-hydroxypropyl]-4,5-dihydro-1H-1,2,4-triazol-1-yl}methyl)-1H-1,2,4-triazol-1-yl]pyridine-4-carboxamide] |
| 27 | 7.2 | 3.8 | COc1cccnc1-n1nc(Cn2nc(-c3ccc(Cl)cc3)n(C[C@H](O)C(F)(F)F)c2=O)nc1C(N)=O [Example 4, 3-({3-(4-Chlorophenyl)-5-oxo-4-[(2S)-3,3,3-trifluoro-2-hydroxypropyl]-4,5-dihydro-1H-1,2,4-triazol-1-yl}methyl)-1-(3-methoxypyridin-2-yl)-1H-1,2,4-triazole-5-carboxamide] |

| SMILES | IC50 (human V2 receptor) [nM] | IC50 (human V1a receptor) [nM] | ratio IC50 hV2/hV1a (human V1a receptor) |
| --- | --- | --- | --- |
| NC(=O)c1nc(Cn2nc(-c3ccc(Cl)cc3)n(CC(=O)C(F)(F)F)c2=O)nn1-c1ccccc1Cl [Example 37, 1-(2-Chlorophenyl)-3-{[3-(4-chlorophenyl)-5-oxo-4-(3,3,3-trifluoro-2-oxopropyl)-4,5-dihydro-1H-1,2,4-triazol-1-yl]methyll-1H-1,2,4-triazole-5-carboxamide (ketone form) or 1-(2-Chlorophenyl)-3-{[3-(4-Chlorophenyl)-5-oxo-4-(3,3,3-trifluoro-2,2-dihydroxypropyl)-4,5-dihydro-1H-1,2,4-triazol-1-yl]methyl}-1H-1,2,4-triazole-5-carboxamide (hydrate form)] | 13.5 | 1.37 | 9.9 |
